According to patent US20120029187A1, “HALOALKYLSULFONANILIDE DERIVATIVE” (Nissan Chemical Industries, Ltd., priority 2009, published 2012):

Key:
Format in all cases: in vivo
transplanted rice = assay: Test Example 1: preemergence treatment under submerged conditions, effect on crop; settings: dose 2.52 g/a
Method in brief: (§1)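 Weed seeds and 2.5-leaf rice seedlings shared each flooded cup of alluvial soil. Dosing, expressed as g per are, was by pouring water-diluted emulsifiable concentrate onto the surface on sowing day. Mortality was graded 0 to 5 after three weeks' growth.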

bulrush [1] = assay: Test Example 2: herbicidal effects during the vegetation period under submerged conditions; settings: treatment during the vegetation period under submerged conditions; dose 2.52 g/a
Method in brief: (§2)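 Barnyardgrass, bulrush and ducksalad were co-sown in alluvial soil flooded to 4 cm and grown in a greenhouse at 25 to 30° C. At the 1- or 2-leaf stage, water-diluted emulsifiable concentrates went onto the water surface at set doses (g/a). Herbicidal effect was scored three weeks later on a graded scale.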

ducksalad [2] = assay: as above; settings: treatment during the vegetation period under submerged conditions; dose 2.52 g/a
Method in brief: as §2

barnyardgrass [3] = assay: as above; settings: treatment during the vegetation period under submerged conditions; dose 2.52 g/a
Method in brief: as §2

bulrush [4] = assay: Test Example 1: herbicidal effects in preemergence treatment under submerged conditions; settings: dose 2.52 g/a
Method in brief: as §1

ducksalad [5] = assay: as above; settings: dose 2.52 g/a
Method in brief: as §1

barnyardgrass [6] = assay: as above; settings: dose 2.52 g/a
Method in brief: as §1

common ragweed [7] = assay: Test Example 4: herbicidal effect in foliage treatment; settings: dose 3.2 g/a, three weeks after application
Method in brief: (§3)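 Herbicidal effect was rated on an evaluation scale three weeks after treatment. Plants had been raised 14 days at 25 to 30° C in sterilized diluvial soil, then received foliar sprays of emulsifiable concentrate diluted in water at predetermined doses expressed as g per are.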

Italian ryegrass [8] = assay: as above; settings: dose 3.2 g/a, three weeks after application
Method in brief: as §3

water foxtail [9] = assay: as above; settings: dose 3.2 g/a, three weeks after application
Method in brief: as §3

barnyardgrass [10] = assay: as above; settings: dose 3.2 g/a, three weeks after application
Method in brief: as §3

common chickweed [11] = assay: as above; settings: dose 3.2 g/a, three weeks after application
Method in brief: as §3

large crabgrass [12] = assay: as above; settings: dose 3.2 g/a, three weeks after application
Method in brief: as §3

beadstraw [13] = assay: as above; settings: dose 3.2 g/a, three weeks after application
Method in brief: as §3

redroot pigweed [14] = assay: as above; settings: dose 3.2 g/a, three weeks after application
Method in brief: as §3

common lambsquater [15] = assay: as above; settings: dose 3.2 g/a, three weeks after application
Method in brief: as §3

giant foxtail [16] = assay: as above; settings: dose 3.2 g/a, three weeks after application
Method in brief: as §3

velvetleaf [17] = assay: as above; settings: dose 3.2 g/a, three weeks after application
Method in brief: as §3

wild oat [18] = assay: as above; settings: dose 3.2 g/a, three weeks after application
Method in brief: as §3

posumbu knotweed [19] = assay: Test Example 3: herbicidal effects in soil treatment; settings: dose 3.2 g/a
Method in brief: (§4)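 Seeds were sown in sterilized diluvial soil and covered with about 1.5 cm of soil. Compounds, formulated as emulsifiable concentrates and diluted with water, were sprayed evenly over the soil surface at set doses in g/a. Herbicidal effect was scored on a rating scale three weeks later.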

common ragweed [20] = assay: as above; settings: dose 3.2 g/a
Method in brief: as §4

Italian ryegrass [21] = assay: as above; settings: dose 3.2 g/a
Method in brief: as §4

water foxtail [22] = assay: as above; settings: dose 3.2 g/a
Method in brief: as §4

barnyardgrass [23] = assay: as above; settings: dose 3.2 g/a
Method in brief: as §4

common chickweed [24] = assay: as above; settings: dose 3.2 g/a
Method in brief: as §4

large crabgrass [25] = assay: as above; settings: dose 3.2 g/a
Method in brief: as §4

beadstraw [26] = assay: as above; settings: dose 3.2 g/a
Method in brief: as §4

redroot pigweed [27] = assay: as above; settings: dose 3.2 g/a
Method in brief: as §4

common lambsquater [28] = assay: as above; settings: dose 3.2 g/a
Method in brief: as §4

giant foxtail [29] = assay: as above; settings: dose 3.2 g/a
Method in brief: as §4

velvetleaf [30] = assay: as above; settings: dose 3.2 g/a
Method in brief: as §4

wild oat [31] = assay: as above; settings: dose 3.2 g/a
Method in brief: as §4

posumbu knotweed [32] = assay: Test Example 4: herbicidal effect in foliage treatment; settings: dose 3.2 g/a, three weeks after application
Method in brief: as §3

SMILES | a: transplanted rice, effect on crop (evaluation scale 0-5) (transplanted rice) | B: bulrush, herbicidal effect (evaluation scale 0-5) (bulrush [1]) | C: ducksalad, herbicidal effect (evaluation scale 0-5) (ducksalad [2]) | A: barnyardgrass, herbicidal effect (evaluation scale 0-5) (barnyardgrass [3]) | B: bulrush, herbicidal effect (evaluation scale 0-5) (bulrush [4]) | C: ducksalad, herbicidal effect (evaluation scale 0-5) (ducksalad [5]) | A: barnyardgrass, herbicidal effect (evaluation scale 0-5) (barnyardgrass [6]) | J: common ragweed, herbicidal effect (common ragweed [7]) | H: Italian ryegrass, herbicidal effect (Italian ryegrass [8]) | G: water foxtail, herbicidal effect (water foxtail [9]) | A: barnyardgrass, herbicidal effect (barnyardgrass [10]) | N: common chickweed, herbicidal effect (common chickweed [11]) | D: large crabgrass, herbicidal effect (large crabgrass [12]) | O: beadstraw, herbicidal effect (beadstraw [13]) | K: redroot pigweed, herbicidal effect (redroot pigweed [14]) | L: common lambsquater, herbicidal effect (common lambsquater [15]) | E: giant foxtail, herbicidal effect (giant foxtail [16]) | I: velvetleaf, herbicidal effect (velvetleaf [17]) | F: wild oat, herbicidal effect (wild oat [18]) | M: posumbu knotweed, herbicidal effect (evaluation scale 0-5) (posumbu knotweed [19]) | further results
O=C1CC(C(F)(F)F)OCN1Cc1ccccc1NS(=O)(=O)C(F)(F)F (stereo not shown) [II-14] | 0 (mortality of less than 5% (almost ineffective)) | 5 (mortality of 90% or above (nearly complete death)) | 5 (mortality of 90% or above (nearly complete death)) | 5 (mortality of 90% or above (nearly complete death)) | 5 (mortality of 90% or above (nearly complete death)) | 5 (mortality of 90% or above (nearly complete death)) | 5 (mortality of 90% or above (nearly complete death)) | 3 (mortality of at least 40% and less than 70%) | 3 (mortality of at least 40% and less than 70%) | 5 (mortality of 90% or above (nearly complete death)) | 5 (mortality of 90% or above (nearly complete death)) | 3 (mortality of at least 40% and less than 70%) | 4 (mortality of at least 70% and less than 90%) | 3 (mortality of at least 40% and less than 70%) | 0 (mortality of less than 5% (almost ineffective)) | 4 (mortality of at least 70% and less than 90%) | 4 (mortality of at least 70% and less than 90%) | 4 (mortality of at least 70% and less than 90%) | 0 (mortality of less than 5% (almost ineffective)) | 5 (mortality of 90% or above (nearly complete death)) | J: common ragweed, herbicidal effect (evaluation scale 0-5) (common ragweed [20]): 4 (mortality of at least 70% and less than 90%); H: Italian ryegrass, herbicidal effect (evaluation scale 0-5) (Italian ryegrass [21]): 3 (mortality of at least 40% and less than 70%); G: water foxtail, herbicidal effect (evaluation scale 0-5) (water foxtail [22]): 5 (mortality of 90% or above (nearly complete death)); A: barnyardgrass, herbicidal effect (evaluation scale 0-5) (barnyardgrass [23]): 5 (mortality of 90% or above (nearly complete death)); N: common chickweed, herbicidal effect (evaluation scale 0-5) (common chickweed [24]): 5 (mortality of 90% or above (nearly complete death)); D: large crabgrass, herbicidal effect (evaluation scale 0-5) (large crabgrass [25]): 5 (mortality of 90% or above (nearly complete death)); O: beadstraw, herbicidal effect (evaluation scale 0-5) (beadstraw [26]): 5 (mortality of 90% or above (nearly complete death)); K: redroot pigweed, herbicidal effect (evaluation scale 0-5) (redroot pigweed [27]): 4 (mortality of at least 70% and less than 90%); L: common lambsquater, herbicidal effect (evaluation scale 0-5) (common lambsquater [28]): 4 (mortality of at least 70% and less than 90%); E: giant foxtail, herbicidal effect (evaluation scale 0-5) (giant foxtail [29]): 4 (mortality of at least 70% and less than 90%); I: velvetleaf, herbicidal effect (evaluation scale 0-5) (velvetleaf [30]): 5 (mortality of 90% or above (nearly complete death)); F: wild oat, herbicidal effect (evaluation scale 0-5) (wild oat [31]): 0 (mortality of less than 5% (almost ineffective))
CC(C)COC(=O)N(c1ccccc1CN1COC(C(F)(F)F)CC1=O)S(=O)(=O)C(F)(F)F (stereo not shown) [II-16] | 0 (mortality of less than 5% (almost ineffective)) | 5 (mortality of 90% or above (nearly complete death)) | 4 (mortality of at least 70% and less than 90%) | 1 (mortality of at least 5% and less than 20%) | 5 (mortality of 90% or above (nearly complete death)) | 5 (mortality of 90% or above (nearly complete death)) | 5 (mortality of 90% or above (nearly complete death)) | 2 (mortality of at least 20% and less than 40%) | 0 (mortality of less than 5% (almost ineffective)) | 5 (mortality of 90% or above (nearly complete death)) | 0 (mortality of less than 5% (almost ineffective)) | 2 (mortality of at least 20% and less than 40%) | 0 (mortality of less than 5% (almost ineffective)) | 0 (mortality of less than 5% (almost ineffective)) | 0 (mortality of less than 5% (almost ineffective)) | 3 (mortality of at least 40% and less than 70%) | 0 (mortality of less than 5% (almost ineffective)) | 0 (mortality of less than 5% (almost ineffective)) | 0 (mortality of less than 5% (almost ineffective)) | 0 (mortality of less than 5% (almost ineffective)) | M: posumbu knotweed, herbicidal effect (posumbu knotweed [32]): 0 (mortality of less than 5% (almost ineffective)); J: common ragweed, herbicidal effect (evaluation scale 0-5) (common ragweed [20]): 3 (mortality of at least 40% and less than 70%); H: Italian ryegrass, herbicidal effect (evaluation scale 0-5) (Italian ryegrass [21]): 0 (mortality of less than 5% (almost ineffective)); G: water foxtail, herbicidal effect (evaluation scale 0-5) (water foxtail [22]): 5 (mortality of 90% or above (nearly complete death)); A: barnyardgrass, herbicidal effect (evaluation scale 0-5) (barnyardgrass [23]): 0 (mortality of less than 5% (almost ineffective)); D: large crabgrass, herbicidal effect (evaluation scale 0-5) (large crabgrass [25]): 0 (mortality of less than 5% (almost ineffective)); O: beadstraw, herbicidal effect (evaluation scale 0-5) (beadstraw [26]): 0 (mortality of less than 5% (almost ineffective)); K: redroot pigweed, herbicidal effect (evaluation scale 0-5) (redroot pigweed [27]): 0 (mortality of less than 5% (almost ineffective)); L: common lambsquater, herbicidal effect (evaluation scale 0-5) (common lambsquater [28]): 1 (mortality of at least 5% and less than 20%); E: giant foxtail, herbicidal effect (evaluation scale 0-5) (giant foxtail [29]): 0 (mortality of less than 5% (almost ineffective)); I: velvetleaf, herbicidal effect (evaluation scale 0-5) (velvetleaf [30]): 0 (mortality of less than 5% (almost ineffective)); F: wild oat, herbicidal effect (evaluation scale 0-5) (wild oat [31]): 0 (mortality of less than 5% (almost ineffective))
